The values below come from patent publication US20070166696A1, “Adenovirus-transfected primary cells and methods of pathway mapping” (SANOFI-AVENTIS U.S. LLC, priority 2003, published 2007).

What all share (assay type): cell-based, human
One assay relates to CRE cis-element. Description: Adenovirus luciferase reporter in CD14+ plate-bound macrophages. Conditions: LPS 1 μg/ml, 24 hours post stimulation. How it is done:
(§1) After a certain amount of time post stimulation, the cells are collected and luciferase activity is measured. Luciferase activity can be measured by an enzyme assay using a photon generating substrate and detecting photons by luminometer.
(§2) Similar experiments were performed for CD14^+ plate-bound macrophages. In this example, macrophages are obtained as follows: First, peripheral blood mononuclear cells (“PBMCs”) are obtained by density gradient centrifugation. One density gradient centrifugation medium is FICOLL PAQUE, commercially available from Amersham Biosciences. Monocytes are then isolated from the PBMCs by magnetic depletion of non-monocytes. Finally, macrophages are isolated from the monocytes by attachment of the monocytes to a tissue culture plate in the absence of fetal bovine serum (“FBS”).
(§3) In this example, resting cultures of isolated macrophages are then infected with a recombinant adenovirus containing the luciferase gene which is transcribed under the control of a specific cis-element. In this example, four recombinant adenovirus constructs are used to infect four separate cultures of macrophages, each construct containing one of four cis-elements: CRE, AP-1, NFκB, and ISRE. The macrophages are infected at a MOI of 100 per cell. […] At 24 hours post stimulation, cells are harvested and luciferase activity is measured by luminometer. […]

Assay [1] deals with AP-1 cis-element. Described as above. Conditions: LPS 1 μg/ml, 24 hours post stimulation. As to the method: as §1, §2, §3
The test system of the next assay is NFκB cis-element. Nature of the assay: Adenovirus luciferase reporter in iDCs. Particulars: LPS 1 μg/ml, 2, 4, 8, 24 hours time course. How it is done:
as §1
(§4) Similar experiments were performed for in vitro differentiated dendritic cells (“iDCs”). In this example, iDCs are obtained as follows: First, peripheral blood mononuclear cells (“PBMCs”) are obtained by density gradient centrifugation. One density gradient centrifugation medium is FICOLL PAQUE, commercially available from Amersham Biosciences. Monocytes are then isolated from the PBMCs by magnetic depletion of non-monocytes. Finally, iDCs are isolated from the monocytes by treatment of the monocytes with ILA and GM-GSF for 6 days.
(§5) In this example, resting cultures of isolated iDCs are then infected with a recombinant adenovirus containing the luciferase gene which is transcribed under the control of a specific cis-element. In this example, three recombinant adenovirus constructs are used to infect three separate cultures of iDCs, each construct containing one of three cis-elements: AP-1, NFκB, and ISRE. The iDCs are infected at a MOI of 100 per cell. After 16 hours of incubation post infection, the iDCs are then either mock stimulated (“C”) or stimulated with lipopolysaccharide (“LPS”) at the concentration of 1 μg/ml. At 2 hours, 4 hours, 8 hours, and 24 hours post stimulation, cells are harvested and luciferase activity is measured by luminometer. FIG. 6B contains three charts depicting the time course of AP-1, NFκB, and ISRE stimulation, respectively. […] These charts also indicate different time courses of activation.

Assay [2] deals with AP-1 cis-element. Description: Adenovirus luciferase reporter in iDCs. Conditions: LPS 1 μg/ml, 2, 4, 8, 24 hours time course. As to the method:
as §1, §4, §5
(In general: A reporter such as luciferase makes a cellular process visible.)

A further assay concerns ISRE cis-element. Description: Adenovirus luciferase reporter in iDCs. Particulars: LPS 1 μg/ml, 2, 4, 8, 24 hours time course. As to the method:
as §1, §4, §5

On to lipopolysaccharide [LPS], for which the “activation of the CRE cis-element (luciferase activity)” value with CRE cis-element is reported as “significant stimulated activation”. The “activation of the AP-1 cis-element (luciferase activity)” value with AP-1 cis-element [1] is given as “significant stimulated activation”. The “stimulation of the NFκB cis-element (luciferase activity)” value in the assay with NFκB cis-element is on record as “significant stimulation”. Besides, in the assay on AP-1 cis-element [2], the “stimulation of the AP-1 cis-element (luciferase activity)” value is on record as “significant stimulation”. The “stimulation of the ISRE cis-element (luciferase activity)” value in the assay with ISRE cis-element is on record as “significant stimulation”.
